Experimental findings from patent publication US6465501B2, “Azolidines as β3 adrenergic receptor agonists” (Wyeth, priority 2000, dated 2002) are described below.

Structures can show the parent of a compound that is named as a salt.

Usually melting point stands for the temperature, or range, at which the solid turns liquid.

Regarding `CN1C(=O)SC(Nc2ccc(CCNC[C@H](O)COc3ccc(OCc4ccccc4)cc3)cc2)C1=O` (stereo partly shown) (as salt: HBr) [Example 2, 5-{4-[2-({(2 S)-3-[4-(Benzyloxy}phenoxy]-2-hydroxypropyl}amino)ethyl]anilino}-3-methyl-1,3-thiazolidine-2,4-dione], the melting point lay within 165 to 167 °C.

In turn, `O=C1NC(=O)C(Nc2ccc(CCNC[C@H](O)COc3ccc(F)cc3)cc2)S1` (stereo partly shown) (as salt: salt) (hydrate or solvate) [Example 8, 5-[4-(2-{[(2 S)-3-(4-Fluorophenoxy)-2-hydroxypropyl]amino}ethyl)anilino]-1,3-thiazolidine-2,4-dione] showed a melting point of 55 °C.

Regarding `O=C1NC(=O)C(Nc2ccc(CCNC[C@H](O)COc3ccccc3)cc2)S1` (stereo partly shown) (as salt: salt) (hydrate or solvate) [Example 9, 5-[4-(2-{[(2 S)-2-Hydroxy-3-phenoxypropyl]amino}ethyl)anilino]-1,3-thiazolidine-2,4-dione], the melting point was 55 °C.

The compound `COc1ccc(OC[C@@H](O)CNCCc2ccc(NC3SC(=O)NC3=O)cc2)cc1` (stereo partly shown) (as salt: salt) (hydrate or solvate) [Example 10, 5-[4-(2-{[(2 S)-2-Hydroxy-3-(4-methoxyphenoxy)propyl]amino}ethyl)anilino]-1,3-thiazolidine-2,4-dione] displayed a melting point of 56 °C.

Regarding `O=C1NC(=O)C(Nc2ccc(CCNC[C@H](O)COc3cccc(O)c3)cc2)S1` (stereo partly shown) (as salt: salt) (hydrate or solvate) [Example 12, 5-[4-(2-{[(2 S)-2-Hydroxy-3-(3-hydroxyphenoxy)propyl]amino}ethyl)anilino]-1,3-thiazolidine-2,4-dione], the melting point was 65 °C.

`O=C1NC(=O)C(Nc2ccc(CCNC[C@H](O)COc3cccc4[nH]c5ccccc5c34)cc2)S1` (stereo partly shown) (as salt: salt) (hydrate or solvate) [Example 13, 5-[4-(2-{[(2 S)-3-(9 H-Carbazol-4-yloxy)-2-hydroxypropyl]amino}ethyl)anilino]-1 ,3-thiazolidine-2,4-dione] displayed a melting point of 140 °C.

As to `CS(=O)(=O)Nc1cc([C@H](O)CNCCc2ccc(NC3SC(=O)NC3=O)cc2)ccc1O` (stereo partly shown) (as salt: salt) (hydrate or solvate) [Example 14, N{5-[(1 S)-2-({4-[(2,4-Dioxo-1,3-thiazolidin-5-yl)amino]phenethyl}amino)-1-hydroxyethyl]-2-hydroxyphenyl}methanesulfonamide], the melting point was 130 °C.

The compound `O=C1NC(=O)C(Nc2ccc(CCNC[C@H](O)COc3ccc4occc4c3)cc2)S1` (stereo partly shown) (as salt: salt) (hydrate or solvate) [Example 15, 5-[4-(2-{[(2 S)-3-(1-Benzofuran-5-yloxy)-2-hydroxypropyl]amino}ethyl)anilino]-1,3-thiazolidine-2,4-dione] showed a melting point of 50 °C.

For `CN(c1ccc(CCNC[C@H](O)COc2ccccc2)cc1)C1SC(=O)NC1=O` (stereo partly shown) (as salt: salt) (hydrate or solvate) [Example 17, 5-[4-(2-{[(2 S)-2-Hydroxy-3-phenoxypropyl]amino}ethyl)(methyl)anilino]-1,3-thiazolidine-2,4-dione.], the melting point was 58 °C.

As for `CC(Cc1ccc(NC2SC(=O)NC2=O)cc1)NC[C@H](O)c1cccc(Cl)c1` (stereo partly shown) (as salt: salt) (hydrate or solvate) [Example 18, 5-[4-(2-{[(2 R)-2-(3-Chlorophenyl)-2-hydroxyethyl]amino}propyl)anilino]-1,3-thiazolidine-2,4-dione], the melting point fell in the range of 83 to 85 °C.

With `O=C1NC(=O)C(Nc2ccc(CCNC[C@H](O)COc3ccc(Oc4ccccc4)cc3)cc2)S1` (stereo partly shown) (as salt: salt) [Example 1, 5-[4-(2-{[(2 S)-2-Hydroxy-3-(4-phenoxyphenoxy)propyl]amino}ethyl)anilino]-1,3-thiazolidine-2,4-dione], the melting point was in the range of 72 to 74 °C.

Take `O=C1NC(=O)C(Nc2ccc(CCNC[C@H](O)c3ccccc3)cc2)S1` (stereo partly shown) (as salt: salt) [Example 7, 5-[4-(2-{[(2 R)-2-Hydroxy-2-phenylethyl]amino}ethyl)anilino]-1,3-thiazolidine-2,4-dione]: the melting point came out at 55 °C.

For the compound `O=C1NC(=O)C(Nc2ccc(CCNC[C@@H](O)COc3cccc4[nH]c(=O)[nH]c34)cc2)S1` (stereo partly shown) (as salt: salt) [Example 19, 5-{4-[2-({(2 R)-2-Hydroxy-3-[(2-oxo-2,3-di hydro-1 H-benzimidazol-4-yl)oxy]propyl}amino)ethyl]anilino}-1,3-thiazolidine-2,4-dione], the melting point came out at 172 °C.

In the case of `O=C1NC(=O)C(N(Cc2ccc(Br)cc2)c2ccc(CCNC[C@H](O)COc3ccc(OCc4ccccc4)cc3)cc2)S1` (stereo partly shown) (as salt: salt) [Example 25, 5-[(4-{2-[(2 S)-3-(4-Benzyloxy-phenoxy)-2-hydroxy-propylamino]-ethyl}-phenyl)-(4-bromo-benzyl)-amino]-thiazolidine-2,4-dione], the melting point was in the range of 50 to 52 °C.

In the case of `CN(c1ccc(CCNC[C@H](O)COc2ccc(OCc3ccccc3)cc2)cc1)C1SC(=O)NC1=O` (stereo partly shown) (as salt: salt) [Example 26, 5-[(4-{2-[(2 S)-3-(4-Benzyloxy-phenoxy)-2-hydroxy-propylamino]-ethyl}-phenyl)-methyl-amino]-thiazolidine-2,4-dione], the melting point was 51 to 53 °C.

Compound `O=C1NC(=O)C(Nc2ccc(CCNC[C@H](O)COc3ccc4ccccc4c3)cc2)S1` (stereo partly shown) (hydrate or solvate) [Example 21, 5-(4-{2-[(2 S)-2-Hydroxy-3-(naphthalen-2-yloxy)-propylamino]-ethyl}-phenylamino)-thiazolidine-2,4-dione] showed a melting point of 90 to 91 °C.

In turn, `O=C1NC(=O)C(Nc2ccc(CCNCC(O)COc3cccc4ccccc34)cc2)S1` (stereo not shown) (hydrate or solvate) [Example 23, 5-(4-{2-[2-Hydroxy-3-(naphthalen-1-yloxy)-propylamino]-ethyl}-phenylamino)-thiazolidine-2,4-dione] gave a melting point of 61 to 62 °C.

As for `O=C1NC(=O)C(Nc2ccc(CCNC[C@H](O)COc3ccc4c(c3)OCO4)cc2)S1` (stereo partly shown) (hydrate or solvate) [Example 24, 5-(4-{2-[(2 S)-3-(Benzo[1,3]dioxol-5-yloxy)-2-hydroxy-propylamino]-ethyl}-phenylamino)-thiazolidine-2,4-dione], the melting point is 65 °C (dec.).

As to `O=C1NC(=O)C(N(CC#Cc2ccc(F)cc2)c2ccc(CCNC[C@H](O)COc3ccc(OCc4ccccc4)cc3)cc2)S1` (stereo partly shown) (hydrate or solvate) [Example 27, 5-[(4-{2-[(2 S)-3-(4-Benzyloxy-phenoxy)-2-hydroxy-propylamino]-ethyl}-phenyl)-[3-(4-fluoro-phenyl)-prop-2-ynyl]-amino}-thiazolidine-2,4-dione], the melting point is 99 to 101 °C.

In the case of `O=C1NC(=O)C(N(Cc2ccc(Br)cc2)c2ccc(CCNC[C@H](O)COc3ccc(O)cc3)cc2)S1` (stereo partly shown) (hydrate or solvate) [Example 28, 5-[(4-Bromo-benzyl)-(4-{2-[(2 S)-2-hydroxy-3-(4-hydroxy-phenoxy)-propylamino]-ethyl}-phenyl)-amino]-thiazolidine-2,4-dione], the melting point is 79 °C (dec.).

`O=C1NC(=O)C(N(Cc2ccc(Br)cc2)c2ccc(CCNC[C@H](O)COc3ccccc3)cc2)S1` (stereo partly shown) (hydrate or solvate) [Example 29, 5-((4-Bromo-benzyl)-{4-[2-((2 S)-2-hydroxy-3-phenoxy-propylamino)-ethyl]-phenyl}-amino)-thiazolidine-2,4-dione] came in with a melting point of 52 to 54 °C.

For `O=C1NC(=O)C(Nc2ccc(CCNC[C@@H](O)c3cccnc3)cc2)S1` (stereo partly shown) (hydrate or solvate) [Example 30, 5-{4-[2-((2 S)-2-Hydroxy-2-pyridin-3-yl-ethylamino)-ethyl]-phenylamino}-thiazolidine-2,4-dione], the melting point fell in the range of 46 to 48 °C.

Regarding `O=C1NC(=O)C(Nc2ccc(CCNC[C@H](O)c3cccnc3)cc2)S1` (stereo partly shown) (hydrate or solvate) [Example 31, 5-{4-[2-((2 R)-2-Hydroxy-2-pyridin-3-yl-ethylamino)-ethyl]-phenylamino}-thiazolidine-2,4-dione], the melting point lay within 65 to 67 °C.

Take `CN1C(=O)SC(Nc2ccc(CCNC[C@H](O)c3cccc(Cl)c3)cc2)C1=O` (stereo partly shown) [Example 3, 5-[4-(2-{[(2 R)-2-(3-Chlorophenyl)-2-hydroxyethyl]amino}ethyl)anilino]-3-methyl-1,3-thiazolidine-2,4-dione]: the melting point fell in the range of 129 to 131 °C.

Turning to `O=C1NC(=O)C(Nc2ccc(CCNC[C@H](O)COc3ccc(-c4ccccc4)cc3)cc2)S1` (stereo partly shown) [Example 22, 5-(4-{2-[(2 S)-3-(Biphenyl-4-yloxy)-2-hydroxy-propylamino]-ethyl}-phenylamino)-thiazolidine-2,4-dione], the melting point fell in the range of 70 to 71 °C.
